{"source": "patent US12202942B2", "about": "“Functionalized silicone polymers and methods of making and using the same” (Wilmar Trading Pte. Ltd., priority 2018, dated 2025)", "format_in_all_cases": "physicochemical", "key": {"[1]": {"assay": "Solubility in organic solvents"}, "[2]": {"assay": "Surface tension of grafted siloxane derivatives", "protocol": "(§1) The reactions were extremely exothermic and needed to be cooled by a dry ice bath once the temperature approached 30° C. For these reactions, an excess amount of terminal olefin substrate was used based on the equivalent weight (eqW) of hydrosiloxane. Reaction progress was monitored by FTIR as both the hydrosilane absorbance (2150 cm-1) and terminal olefin absorbance (1640 cm-1) disappeared while the carbonyl absorbance remained constant (1735 cm-1). Once the reaction was judged complete, the unreacted olefin starting material was removed by vacuum distillation. The resulting organofunctional siloxane oligomers were analyzed without further purification by 1H-NMR spectroscopy."}, "[3]": {"assay": "Brookfield viscosity of grafted siloxane derivatives", "protocol": "as §1\nInto either a 50 or 100 ml three-necked, round-bottomed flask equipped with a magnetic stirrer, a thermocouple with a J-Kem controller, a heating mantle and a short path distillation apparatus with a nitrogen inlet was added the uC10 derivative and the hydrosilane oligomer. In most cases the reaction was run neat, however the uC10MEE-16-based reactions were two phase so that isopropanol (IPOH) was added to compatiblize the reactants. Once the catalyst was added (1 drop) at ambient temperatures, the temperature was carefully monitored. The reaction was gentle warmed by an air gun until about 30° C. when heating was discontinued and a dry ice bath was used to moderate the vigorous exotherm. Once the temperature had stabilized, then the heating mantle was used to hold the reaction temperature at 60° C. for the next few hours. The reaction's progress was easily monitored by FTIR as both the hydrosilane absorbance (2150 cm^−1) and the terminal olefin's absorbance (1640 cm^−1) disappeared while the carbonyl absorbance remained constant (1735 cm^−1). When the reactions were judged complete, they were typically subjected to reduced pressure to remove any excess reagents or solvents. The products were transferred into 2 oz glass bottles and remained liquids except for the uC16MEE-16-based materials that solidified. […]"}}}
{"smiles": "COC(=O)CCCCCCCCC[Si](C)(O[Si](C)(C)C)O[Si](C)(C)C", "note": "[Compound 6]", "values": [{"measurement": "Solubility in polar organic solvents (in words)", "setting": "[1]; polar organic solvents", "result": "significantly more soluble"}, {"measurement": "Solubility (wt %) MEK", "setting": "[1]; solvent MEK", "result": ">50", "unit": "wt %"}, {"measurement": "Solubility (wt %) Acetone", "setting": "[1]; solvent acetone", "result": ">50", "unit": "wt %"}, {"measurement": "Solubility (wt %) Acetonitrile", "setting": "[1]; solvent acetonitrile", "result": 13, "unit": "wt %"}, {"measurement": "Solubility (wt %) Ethylene Glycol", "setting": "[1]; solvent ethylene glycol", "result": 6, "unit": "wt %"}, {"measurement": "Solubility (wt %) Heptanes", "setting": "[1]; solvent heptanes", "result": ">50", "unit": "wt %"}, {"measurement": "Solubility (wt %) Methanol", "setting": "[1]; solvent methanol", "result": 17, "unit": "wt %"}, {"measurement": "Surface Tension (20° C.)", "setting": "[2]", "result": 22.6, "unit": "mN/m"}, {"measurement": "Viscosity (25° C.)", "setting": "[3]", "result": 7.1}]}
{"smiles": "COCCOCCOCCOC(=O)CCCCCCCCC[Si](C)(O[Si](C)(C)C)O[Si](C)(C)C", "note": "[Compound 7]", "values": [{"measurement": "Surface Tension (20° C.)", "setting": "[2]", "result": 21.4, "unit": "mN/m"}, {"measurement": "Viscosity (25° C.)", "setting": "[3]", "result": 17}]}
{"smiles": "C[Si](C)(C)O[Si](C)(CCCCCCCCCC(=O)OCCC(F)(F)C(F)(F)C(F)(F)C(F)(F)F)O[Si](C)(C)C", "note": "[Compound 9]", "values": [{"measurement": "Surface Tension (20° C.)", "setting": "[2]", "result": 20.8, "unit": "mN/m"}, {"measurement": "Viscosity (25° C.)", "setting": "[3]", "result": 16}]}
